Laboratory results published in EP1591123A1, “USES OF NARINGENIN, NARINGIN AND SALTS THEREOF AS EXPECTORANTS IN THE TREATMENT OF COUGH, AND COMPOSITIONS THEREOF” (Su, Wei-wei, priority 2003, dated 2004).
Structures can show the parent of a compound that is named as a salt.

Columns and labels:
NIH mice = assay: Antitussive test of Naringin, spraying with concentrated ammonia liquor (Example 28); format: in vivo; conditions: 0.2 ml/20g of 1.5 mg/ml
Description: 1.Animals: As the stock animals, totally 130 NIH mice, male, each weighed 18.2~21.7g within ordinary standard. Weigh and number each mice accurately first, then pick out the 120 healthy ones who weighed in range from 18.5~21.0g. Ranked in weigh, they were divided into 8 groups in random with each 15. Set up reference groups of negative and positive, and sample groups of high-dose, mid-dose, low-dose Naringin and sodium Naringinate.
• 1) Blank control group: physiological saline, 0.9% NaCl; • 2) Positive control group: 30 mg dextromethorphan hydrobromide was weighed into a 20ml volumetric flask, and physiological saline was accurately added to the volume to obtain the solution for positive control at concentration of 5mg/ml° • 3) Group of low-dose sample Naringin: Proper amount of Naringin was weighed into a suitable volumetric flask, and physiological saline was added to the volume to obtain the solution at concentration of 0.5mg/ml. • 4) Group of mid-dose sample Naringin: Proper amount of Naringin was weighed into a suitable volumetric flask, and physiological saline was added to the volume to obtain the solution at concentration of 1.5mg/ml. • 5) Group of high-dose sample Naringin: Proper amount of Naringin was weighed into a suitable volumetric flask, and physiological saline was added to the volume to obtain the solution at concentration of 4.5mg/ml. • 6) Group of low-dose sample sodium Naringinate: Proper amount of sodium Naringin was weighed into a suitable volumetric flask, and physiological saline was added to the volume to obtain the solution at concentration of 0.5mg/ml. • 7) Group of mid-dose sample sodium Naringinate: Proper amount of sodium Naringin was weighed into a suitable volumetric flask, and physiological saline was added to the volume to obtain the solution at concentration of 1.5mg/ml. • 8) Group of high-dose sample sodium Naringinate: Proper amount of sodium Naringin was weighed into a suitable volumetric flask, and physiological saline was added to the volume to obtain the solution at concentration of4.5mg/ml.
One hour after intra-gastrointestinal administering for the mice, spray with concentrated ammonia liquor for certain intervals. Immediately the spraying was over, put away the mice outside and observe the tussive action. Mark down the times for which they coughed within 1 minute. Only when they coughed, which was characteristic of compression of abdomen or chest with their mouths open, and making coughing noise, for more than 3 times within a minute, tussive action could be admitted.
Calculate the median effective dose(EDT50) with sequential trials. Work out the amount of R with the formula below. If R is greater than 130%, it means the drug will be effective on antitussive action. If R is greater than 150%, it means the drug will be remarkably effective on antitussive action. The formula is shown as below: R =(EDT50 of the treatmnet)/(EDT50 of the control)× 100% [formula] EDT50=log-1c/n(n for amount of animals, c for summation of rx, r for amount of animals in each group, x for logarithm of the dose (time for spraying) )

mice = assay: Antitussive test of Naringenin, spray by high concentration ammonia (Example 30); format: in vivo; conditions: sample concentration 1.5 mg/ml
Description: 1. Animal: 120 healthy male mice weighing 19.5-22.1g was grouped into 8 groups random after labeled, which was selected from 130 male mice weighing 19.3-22.6g. Every group was 15 mice. Eight group were set including negative control group, positive control group, high dose group of Naringenin, middle dose group of Naringenin, low dose group of Naringenin, high dose group of sodium salt of Naringenin, middle dose group of sodium salt of Naringenin, low dose group of sodium salt of Naringenin.
• 1) Blank control group: physiological saline, 0.9% NaCl; • 2) Positive control group: 30mg Dextromethorphan Hydrobromide was dissolve into 20 ml physiological saline and the sample concentration was 1.5 mg/ml to obtain the solution for positive control. • 3) low dose group of Naringenin: weighting out the appropriate amount of Naringenin and dissolving it in physiological saline, then the sample concentration was 0.5 mg/ml. • 4) middle dose group of Naringenin: weighting out the appropriate amount of Naringenin and dissolving it in physiological saline, then the sample concentration was 1.5mg/ml. • 5) high dose group of Naringenin: weighting out the appropriate amount of Naringenin and dissolving it in physiological saline, then the sample concentration was 4.5 mg/ml. • 6) low dose group of sodium salt of Naringenin: weighting out the appropriate amount of sodium salt of Naringenin and dissolving it in physiological saline, then the sample concentration was 0.5 mg/ml. • 7) middle dose group of sodium salt of Naringenin: weighting out the appropriate amount of sodium salt of Naringenin and dissolving it in physiological saline, then the sample concentration was 1.5 mg/ml. • 8) high dose group of sodium salt of Naringenin: weighting out the appropriate amount of sodium salt of Naringenin and dissolving it in physiological saline, then the sample concentration was 4.5 mg/ml.
Animals were oral administered, and were sprayed one hour later. After the spray took out the animals and observed the tussive action. Observed the time of tussis in one minutes, if it appeared typical tussis three times in one minutes(shrinking the abdomen muscle or shrinking chest, puffing mouth at the same time, sometimes appearing tussive sound), we consider it "appearing tussis", otherwise "no tussis".
We calculated the spraying time that half of mice were tusisive by sequential method. And calculated the R, the drug was provided with effect of relieve a cough if R>130%. The drug was provided with remarkable effect of relieve a cough if R>150%. Underside is expressions: R=(EDT50 of the treatment)/(EDT50 of the control)× 100% [formula] EDT50=log^-1c/n ('n' is the number of animal, 'c' is the sum of 'rx' value, 'r' is the number of animal in every group, 'x' is the logarithm of dose(namely spray time).)

[1] = EDT50 of the treatment / EDT50 of the control x 100%

## COc1ccc2c(c1)[C@]13CCCC[C@@H]1[C@H](C2)N(C)CC3 [Dextromethorphan Hydrobromide, reference compound]
NIH mice
  Effect of relieving cough: effective (If R is greater than 130%, it means the drug will be effective on antitussive action)
NIH mice; [1]
  R Value: 140.23%
NIH mice; mice, intra-gastrointestinal, ammonia spray 1 hour after dosing
  EDT50: 56.82 s
mice; [1]
  R Value: 138.05%
mice; mice, oral, dose 0.2 (mg/20g), spray one hour later
  EDT50: 53.70 s
mice
  Effect of relieving cough: effect (the drug was provided with effect of relieve a cough if R>130%)
